According to patent US10344025B2, “GLS1 inhibitors for treating disease” (Board of Regents, The University of Texas System, priority 2014, dated 2019):
Like-named read-outs stand apart in the source and are kept apart here.

What was measured:
A549 cells = assay: Proliferation Assay (A549 viability, Cell Titer Fluor, 72 hours); format: cell-based
Procedure, shortened: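 A549 cells seeded at 1000 cells/well, rested 24 h, then exposed to compound in 0.5% DMSO for 72 h at 37 °C. Viability read by Cell Titer Fluor fluorescence; IC50 from four-parameter logistic fit.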

[1] = target: purified recombinant human GAC (GLS1) (Homo sapiens (Human), UniProt O94925); assay: GLS1 Enzymatic Activity Assay (dual-coupled enzymatic assay, resorufin/Amplex UltraRed readout); format: biochemical;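 also: glutamate from GAC coupled via glutamate oxidase and peroxidase to resorufin, read as fluorescence (ex 530, em 590 nm) kinetically or at 20 min, four-parameter logistic IC50 fit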
purified recombinant human GAC (GLS1), sequence (O94925 other isoform, or with tags, fused parts or gaps): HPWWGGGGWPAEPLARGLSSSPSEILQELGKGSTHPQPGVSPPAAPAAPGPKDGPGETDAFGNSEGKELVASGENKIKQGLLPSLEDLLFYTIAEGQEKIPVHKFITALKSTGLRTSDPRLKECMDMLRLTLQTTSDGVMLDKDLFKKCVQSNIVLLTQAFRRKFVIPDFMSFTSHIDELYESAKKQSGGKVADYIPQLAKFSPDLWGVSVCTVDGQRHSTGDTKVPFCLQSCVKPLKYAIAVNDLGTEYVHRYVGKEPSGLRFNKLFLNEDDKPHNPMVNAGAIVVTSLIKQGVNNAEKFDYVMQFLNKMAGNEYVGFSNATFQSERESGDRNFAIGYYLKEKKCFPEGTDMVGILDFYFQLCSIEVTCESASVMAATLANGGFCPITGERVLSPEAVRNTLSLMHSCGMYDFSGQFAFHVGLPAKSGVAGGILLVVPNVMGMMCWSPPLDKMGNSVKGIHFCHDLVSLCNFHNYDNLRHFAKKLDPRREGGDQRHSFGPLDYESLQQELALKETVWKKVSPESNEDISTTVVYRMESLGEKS

Row | Compound | EC50 (A549 cells; Homo sapiens, A549, 72 h) [nM] | IC50 [1] [nM] | EC50 (A549 cells) [nM]
1 | O=C(CC1CCCCC1)Nc1cn(CCCCn2cc(C(=O)NCc3cccnc3)nn2)nn1 [Example 310, 1-{4-[4-(2-cyclohexylacetamido)-1H-1,2,3-triazol-1-yl]butyl}-N-(pyridin-3-ylmethyl)-1H-1,2,3-triazole-4-carboxamide] | 100 to 500 | < 100 | 
2 | O=C(Cc1cc(OC(F)(F)F)ccc1F)Nc1cn(CC(F)CCn2cc(C(=O)NCc3cc(C(F)(F)F)ccn3)nn2)nn1 (centres unmarked) [Example 395, 1-[3-fluoro-4-(4-{2-[2-fluoro-5-(trifluoromethoxy)phenyl]acetamido}-1H-1,2,3-triazol-1-yl)butyl]-N-{[4-(trifluoromethyl)pyridin-2-yl]methyl}-1H-1,2,3-triazole-4-carboxamide] | < 100 | < 100 | 
3 | O=C(Cc1cccc(OC(F)(F)F)c1)Nc1cn(CCC(F)Cn2cc(C(=O)NCc3ncccc3F)nn2)nn1 (centres unmarked) [Example 406, 1-[2-fluoro-4-(4-{2-[3-(trifluoromethoxy)phenyl]acetamido}-1H-1,2,3-triazol-1-yl)butyl]-N-[(3-fluoropyridin-2-yl)methyl]-1H-1,2,3-triazole-4-carboxamide] | < 100 | < 100 | 
4 | O=C(Cc1cccc(OC(F)(F)F)c1)Nc1cn(CCCCn2cc(C(=O)NCC3CCCC3)nn2)nn1 [Example 292, N-(cyclopentylmethyl)-1-[4-(4-{2-[3-(trifluoromethoxy)phenyl]acetamido}-1H-1,2,3-triazol-1-yl)butyl]-1H-1,2,3-triazole-4-carboxamide] | 500 to 5000 | 100 to 500 | 
5 | O=C(Cc1cc(OC(F)(F)F)ccc1F)Nc1nnc(CCC(F)Cn2cc(C(=O)NCc3ccccn3)nn2)s1 (centres unmarked) [Example 204, 1-(2-fluoro-4-(5-(2-(2-fluoro-5-(trifluoromethoxy)phenyl)acetamido)-1,3,4-thiadiazol-2-yl)butyl)-N-(pyridin-2-ylmethyl)-1H-1,2,3-triazole-4-carboxamide] | < 100 | < 100 | 
6 | O=C(NCc1ccc(OC(F)(F)F)cc1)c1cn(CCC(F)Cn2cc(C(=O)NCc3cc(C(F)(F)F)ccn3)nn2)nn1 (centres unmarked) [Example 469, 1-{2-fluoro-4-[4-({[4-(trifluoromethoxy)phenyl]methyl}carbamoyl)-1H-1,2,3-triazol-1-yl]butyl}-N-{[4-(trifluoromethyl)pyridin-2-yl]methyl}-1H-1,2,3-triazole-4-carboxamide] | < 100 | < 100 | 
7 | O=C(NCc1cccc(OC(F)(F)F)c1)c1cn(CCCCn2cc(C(=O)NCC3CC4CCC3O4)nn2)nn1 (centres unmarked) [Example 116, N-{7-oxabicyclo[2.2.1]heptan-2-ylmethyl}-1-{4-[4-({[3-(trifluoromethoxy)phenyl]methyl}carbamoyl)-1H-1,2,3-triazol-1-yl]butyl}-1H-1,2,3-triazole-4-carboxamide] |  | < 100 | 100 to 500
8 | O=C(NCc1cccc(OC(F)(F)F)c1)c1cn(CCCCn2cc(C(=O)NCc3cncc(N4CC(F)(F)C4)c3)nn2)nn1 [Example 146, N-{[5-(3,3-difluoroazetidin-1-yl)pyridin-3-yl]methyl}-1-{4-[4-({[3-(trifluoromethoxy)phenyl]methyl}carbamoyl)-1H-1,2,3-triazol-1-yl]butyl}-1H-1,2,3-triazole-4-carboxamide] | < 100 | < 100 | 
9 | Cc1ccc(CNC(=O)c2cn(CCCCn3cc(NC(=O)Cc4cc(Cl)ccc4F)nn3)nn2)cn1 [Example 388, 1-(4-{4-[2-(5-chloro-2-fluorophenyl)acetamido]-1H-1,2,3-triazol-1-yl}butyl)-N-[(6-methylpyridin-3-yl)methyl]-1H-1,2,3-triazole-4-carboxamide] | 100 to 500 | < 100 | 
10 | O=C(Cc1cc(C2CC2)ccn1)Nc1nnc(CCC(F)Cn2cc(C(=O)NCc3cncc(C(F)(F)F)c3)nn2)s1 (centres unmarked) [Example 580, 1-(4-(5-(2-(4-cyclopropylpyridin-2-yl)acetamido)-1,3,4-thiadiazol-2-yl)-2-fluorobutyl)-N-((5-(trifluoromethyl)pyridin-3-yl)methyl)-1H-1,2,3-triazole-4-carboxamide] | < 100 | < 100 | 
